Assays:
[1] = In-vivo pharmacokinetic study in mice; set-up: species or system male CD-1 mice; conditions: male, CD-1, mouse, plasma
Method: This experiment was intended to evaluate the pharmacokinetic behavior of each compound after a single intravenous injection and intragastric administration and to investigate the bioavailability after intragastric administration.
Male CD-1 mice aged 7 to 10 weeks were selected. The mice were fasted for at least 12 h before administration and were allowed to feed again 4 h after administration, with free access to water throughout the experiment.
On the day of the experiment, animals in the intravenous group were given the corresponding compound by a single injection via the tail vein at an administration volume of 5 mL/kg; animals in the oral group were given the corresponding compound by a single intragastric administration at an administration volume of 10 mL/kg. The animals were weighed before administration, and the administration volume was calculated based on their body weight. Sample collection time points: For the injection group, samples were collected at 0.083 h, 0.25 h, 0.5 h, 1 h, 2 h, 4 h, 8 h, and 24 h; for the intragastric group, samples were collected at 0.25 h, 0.5 h, 1 h, 2 h, 4 h, 6 h, 8 h, and 24 h. At each time point, approximately 30 μL of whole blood was collected via the saphenous vein, which was then used to prepare plasma for concentration determination by high performance liquid chromatography-tandem mass spectrometry (LC-MS/MS). All animals were euthanized with […] after the PK samples were taken at the last time point. The plasma concentrations were processed using a non-compartmental model of the pharmacokinetic software WmnNonlin™ Version 6.3 (Pharsight, Mountain View, CA), and the pharmacokinetic parameters were calculated using a linear log-trapezoidal method.

SHP2 = target: T1, SHP2 (Homo sapiens, UniProt Q06124); experiment: SHP2 in-vitro enzymology experiment (Homogeneous Full Length SHP-2 Assay Kit, DiFMUP substrate); assay type: biochemical; conditions: 60 min pre-incubation, 30 min reaction at 25° C.
T1 construct: Homogeneous Full Length SHP-2 Assay Kit (purchased from BPS Bioscience); purchased BPS Bioscience
T1 sequence (Q06124 1-593): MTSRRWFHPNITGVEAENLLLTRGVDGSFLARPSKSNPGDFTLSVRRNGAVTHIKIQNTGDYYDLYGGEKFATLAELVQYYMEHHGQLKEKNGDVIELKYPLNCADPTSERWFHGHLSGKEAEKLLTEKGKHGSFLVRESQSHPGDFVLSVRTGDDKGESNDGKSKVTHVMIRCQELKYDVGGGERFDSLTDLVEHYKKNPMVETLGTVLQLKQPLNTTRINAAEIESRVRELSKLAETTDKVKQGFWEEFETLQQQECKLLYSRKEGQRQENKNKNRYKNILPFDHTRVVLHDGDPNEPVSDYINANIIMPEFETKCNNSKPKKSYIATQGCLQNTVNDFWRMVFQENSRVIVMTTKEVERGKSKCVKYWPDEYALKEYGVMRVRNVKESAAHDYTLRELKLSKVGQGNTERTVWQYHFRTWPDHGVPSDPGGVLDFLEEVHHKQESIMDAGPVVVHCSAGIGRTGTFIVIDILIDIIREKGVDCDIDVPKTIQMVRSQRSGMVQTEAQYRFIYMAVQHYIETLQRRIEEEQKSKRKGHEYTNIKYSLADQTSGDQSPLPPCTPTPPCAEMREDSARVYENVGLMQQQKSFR
Method: Experimental materials: Homogeneous Full Length SHP-2 Assay Kit (purchased from BPS Bioscience) and NIVO multimode microplate reader.
Preparation of 1× buffer (ready-to-use): 5× buffer was diluted with deionized water to give 1× buffer, which was then placed on ice for later use.
Each test compound was diluted with 100% DMSO to 100 μM as the first concentration, and then diluted in a 4-fold gradient to the 8th concentration (i.e., from 100 μM to 6.1 nM) using a multi-channel pipette. Each gradient of the test compound was diluted with 1× buffer to prepare a working solution with 10% DMSO. The resulting solution was then added to the corresponding wells of a plate at 5 μL/well, with duplicate wells set up. The plate was then centrifuged at 1000 rpm for 1 min.
18 μL of a prepared reaction mixed solution (containing 12.25 μL of deionized water, 5 μL of 5× buffer; 0.25 μL of SHP-2 substrate polypeptide (100 μM), and 0.5 μL of DTT (250 mM)) was added to each well. The plate was then centrifuged at 1000 rpm for 1 min.
An SHP-2 enzyme was diluted to 0.1 ng/μL with 1× buffer. The resulting solution was added to the corresponding wells at 2 μL/well, and 2 μL of 1× buffer and […] were added to each negative control well. This step was performed on ice. The reaction system was then incubated at 25° C. for 60 min for compound pre-incubation.
After the compound pre-incubation was completed, 25 μL of a substrate working solution (containing 19.45 μL of deionized water, 5 μL of 5× buffer; 0.5 μL of DTT (250 mM), and 0.05 μL of SHP-2 Substrate (DiFMUP) (10 mM)) was added to each well, and the reaction system was allowed to react at 25° C. for 30 min. At that time, the final concentration gradient of the compound ranged from 1 μM to 0.061 nM. After the reaction was completed, the fluorescence values were read using the NIVO multimode microplate reader, with an excitation wavelength of 360 nm and an emission wavelength of 460 nm.
Detection of compound background reading values: Each gradient of the test compound diluted with 100% DMSO was added to a new compound plate at 5 μL/well, and then 1× buffer was added at 45 μL/well to achieve a 10-fold dilution to prepare a working solution with 10% DMSO. Next, the compound working solution was added to the detection plate at 5 μL/well, and then 1× buffer was added at 45 μL/well to achieve another 10-fold dilution, bringing the final concentration of DMSO to 1%. The plate was then centrifuged at 1000 rpm for 1 min. The fluorescence values were read using the multimode microplate reader, with an excitation wavelength of 360 nm and an emission wavelength of 460 nm.
The original data were converted to inhibition rates and the IC50 values were obtained by curve fitting using a four-parameter method.

[2] = iv, injection (tail vein), dose 1 mg/kg
[3] = oral 2 mg/kg vs injection 1 mg/kg
[4] = oral administration, dose 2 mg/kg
[5] = iv, injection (tail vein), dose 2 mg/kg
[6] = oral administration, dose 10 mg/kg

Row | AUC(0-t) [1, 2] [nM·h] | clearance [1, 2] [L/h/kg] | bioavailability [1, 3] [%] | AUC(0-t) [1, 4] [nM·h] | Cmax [1, 4] [µM] | IC50 (SHP2) [nM] | AUC(0-t) [1, 5] [nM·h] | clearance [1, 5] [L/h/kg] | bioavailability ([1]; oral 10 mg/kg vs injection 2 mg/kg) [%] | AUC(0-t) [1, 6] [nM·h] | Cmax [1, 6] [µM] | Compound
1 | 638 | 4.1 | 89.8 | 817 | 0.463 | 3.15 |  |  |  |  |  | Cc1nc(N2CCC3(CC2)Cn2nccc2C3N)c(CO)nc1Sc1ccnc(N)c1F (stereo not drawn) [Compound 6]
2 | 1320 | 1.62 | 83.6 | 2040 | 0.927 | 2.87 |  |  |  |  |  | CNc1nccc(Sc2nc(CO)c(N3CCC4(CC3)Cn3nccc3C4N)nc2C)c1Cl (stereo not drawn) [Compound 2]
3 |  |  |  |  |  | 1.73 | 2530 | 1.66 | 69.5 | 8600 | 3.54 | Cc1nc(N2CCC3(CC2)Cn2nccc2C3N)c(CO)nc1Sc1ccnc(N)c1Cl (stereo not drawn) [Compound 1]
4 | 974 | 2.13 | 58.6 | 990 | 0.372 | 2.14 |  |  |  |  |  | Cc1nc(N2CCC3(CC2)Cn2nccc2C3N)c(CO)nc1Sc1cccnc1C(F)(F)F (stereo not drawn) [Compound 4]
